Structures can show the parent of a compound that is named as a salt. Where two headings read alike, the source gives them in different places. Where a SMILES comes first, the peptide text is derived from it. [ ]: non-standard residue; d: D form. The star is where a group is joined. Benzoyl(4-Ph) = O=C(c1ccc(-c2ccccc2)cc1)*; Palmitoyl = CCCCCCCCCCCCCCCC(=O)*; 3Pal = N[C@@H](Cc1cccnc1)C(=O)O; X2 = O=C(c1ccc(-c2cccs2)s1)*; β3hK = NCCCC[C@H](N)CC(=O)O; X1 = FC(F)(F)c1ccc(CN*)cc1; Pip = O=C(O)[C@@H]1CCCCN1; Octanoyl = CCCCCCCC(=O)*; NHOctyl = CCCCCCCCN*; Propionyl = CCC(=O)*; X3 = COc1cccc(CN*)c1; N(Me)OMe = CON(C)*; NHPr = CCCN* Where only a bound is given, the exact number is not on record here.

For the experiment, the target named is T1, DENV protease (Dengue virus type 2, UniProt P29990).
T1 construct: The virus-encoded dengue protease comprises the amino-terminal 180 amino acids of NS3 (NS3pro) of the polyprotein
The experiment in a line: biochemical. The settings on record: read-out: inhibition of DENV. As to the method:
Dilutions were made starting from 10 mM stock solutions in DMSO and final concentrations were measured in triplicates. The inhibitors were preincubated for 15 min with DENV protease (100 nM) in the assay buffer (50 mM Tris-HCl pH 9.0, ethylene glycol (10% v/v), and 0.0016% Brij 58). The enzymatic reaction was initiated by the addition of the FRET substrate (final concentration 50 μM) to obtain a final assay volume of 100 μL per well. The enzymatic activity was monitored for 15 min and determined as a slope of relative fluorescence units per second (RFU/s) for each concentration. The mean of the triplicates were plotted against the corresponding concentration in CDDVault to determine the IC50-values. Analogous procedures were used to determine the inhibitory potency on WNV (Kühl et al., J. Med. Chem. 2020, 63 (15): 8179-8197) and ZIKA protease (Nitsche et al., ACS Med. Chem. Lett. 2019 Feb. 14; 10 (2): 168-174). For selectivity screening of active candidates, similar biochemical assays with human serine proteases trypsin (Weigel et al., J. Med. Chem. 2015, 58 (19), 7719-7733.) and/or thrombin (Nitsche et al., J. Med. Chem. 2013, 56 (21), 8389-8403) were used.

T1 sequence (P29990 1398-1437): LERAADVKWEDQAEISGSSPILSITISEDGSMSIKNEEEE
T1 sequence (P29990 1476-1653): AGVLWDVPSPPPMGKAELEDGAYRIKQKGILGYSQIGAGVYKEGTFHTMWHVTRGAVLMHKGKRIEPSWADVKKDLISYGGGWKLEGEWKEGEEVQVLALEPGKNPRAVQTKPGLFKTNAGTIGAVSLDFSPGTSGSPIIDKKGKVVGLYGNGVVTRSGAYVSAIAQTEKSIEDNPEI

As for `CCCCCCCCCCCCCCCCNC(=O)[C@H](CCCCN)NC(=O)C[C@H](C)NC(=O)[C@H](C)NC(=O)C[C@@H](N)CCCCN` [compound 83], for the setting “at 50 μM”, the inhibition (usually the change of the read-out against control, counted positive when it falls) at 50 µM was no less than 25%.

Regarding `CCCCCCCCCCCCCCCC(=O)N[C@@H](CCCCN)C(=O)N[C@@H](CCCCN)C(N)=O` [compound 110], the inhibition at 50 µM (at 50 μM) was no less than 25%.

`CCCCCCCCCCCCCCCC(=O)N[C@@H](CCCCN)C(=O)N1CCC[C@H]1C(=O)N[C@@H](C)C(=O)N[C@@H](CCCCN)C(=O)c1ccccc1` [compound 128]: for the setting “at 50 μM”, the inhibition at 50 µM was no less than 25%.

With `CCCCCCCCCCCCCCCC(=O)N[C@@H](Cc1c[nH]c(N)n1)C(=O)N[C@@H](CCC(N)=O)C(=O)N[C@@H](Cc1ccccc1)C(N)=O` [compound 62], the inhibition at 50 µM (at 50 μM) was no less than 25%.

Turning to `CCCCCCCCCCCCCCCC(=O)N[C@@H](CCCCN)C(=O)N1CCC[C@H]1C(=O)N[C@@H](Cc1cnc[nH]1)C(=O)N[C@@H](CCCCN)C(N)=O` [compound 12] (Palmitoyl-KPHK-NH2), the inhibition at 50 µM (at 50 μM) is no less than 25%.

As to `CCCCCCCCCCCCCCCC(=O)N[C@@H](CCCCN)C(=O)N[C@@H](C)C(=O)N[C@@H](C)C(=O)N[C@H](CCc1c[nH]cn1)C(N)=O` [compound 173], where the note is “at 1 μM”, the inhibition at 1 µM is no less than 20%. Moreover, the inhibition at 50 µM (at 50 μM) is no less than 25%.

Turning to `CCCCCCCCCCCCCCCC(=O)N[C@@H](CCCCN)C(=O)N1CCCC[C@H]1C(=O)N[C@@H](C)C(=O)N[C@@H](CCCCN)C(N)=O` [compound 15] (Palmitoyl-K[Pip]AK-NH2), the inhibition at 50 µM (at 50 μM) is no less than 25%.

Take `CCCCCCCCCCCCCCCC(=O)N[C@@H](CCCCN)C(=O)N[C@@H](C)C(=O)N[C@@H](C)C(=O)N[C@@H](CCCCN)C(=O)N(C)C` [compound 187] (Palmitoyl-KAAK-NMe2): for the setting “at 50 μM”, the inhibition at 50 µM was no less than 25%.

Take `CCCCCCCCNC(=O)[C@H](CCCCN)NC(=O)[C@H](CCCCN)NC(=O)[C@H](CCCCN)NC(=O)[C@H](CC(C)C)NC(=O)CCCCCCC` [compound 19] (Octanoyl-LKKK-NHOctyl): the inhibition at 50 µM (at 50 μM) is no less than 25%.

With `CCCCCCCCCCCCCCCC(=O)N[C@@H](CCCCN)CC(=O)N1CCC[C@H]1C(=O)N[C@@H](C)C(=O)N[C@H](CCCCN)C(N)=O` [compound 119] (Palmitoyl-[β3hK]PA[dK]-NH2), where the note is “at 50 μM”, the inhibition at 50 µM was no less than 25%.

Regarding `CCCCCCCCCCCCCCCC(=O)N[C@@H](CCNc1ncc[nH]1)C(=O)N[C@@H](CCC(N)=O)C(=O)N[C@@H](Cc1ccccc1)C(N)=O` [compound 66], the inhibition at 50 µM (at 50 μM) was no less than 25%.

In the case of `C[C@H](NC(=O)[C@H](C)NC(=O)[C@H](CCCCN)NC(=O)c1ccc(-c2ccccc2)cc1)C(=O)N[C@@H](CCCCN)C(=O)NCc1ccc(C(F)(F)F)cc1` [compound 89] ({Benzoyl(4-Ph)}-KAAK-X1), the inhibition at 50 µM (at 50 μM) is no less than 25%.

As for `CCCCCCCCCCCCCCCC(=O)N[C@@H](CCCCN)C(=O)N[C@@H](C)C(=O)N[C@@H](CCCCN)C(N)=O` [compound 97] (Palmitoyl-Lys-Ala-Lys-NH2), where the note is “at 50 μM”, the inhibition at 50 µM is no less than 25%.

With `CCCCCCCCCCCCCCCC(=O)N[C@@H](CCCCN)C(=O)N1CCC[C@H]1C(=O)N[C@@H](C)C(=O)N[C@H](Cc1c[nH]cn1)C(N)=O` [compound 164] (Palmitoyl-KPA[dH]-NH2), the inhibition at 50 µM (at 50 μM) was no less than 25%.

Turning to `CCCCCCCCCCCCCCCC(=O)N[C@@H](CCc1ccncc1)C(=O)N[C@@H](CCC(N)=O)C(=O)N[C@@H](Cc1ccccc1)C(N)=O` [compound 57], where the note is “at 50 μM”, the inhibition at 50 µM is no less than 25%.

Take `CCCCCCCCCCCCCCCC(=O)N[C@H](CCCCN)C(=O)N[C@@H](C)C(=O)N[C@@H](CCCCN)C(N)=O` [compound 159] (Palmitoyl-[dK]-Ala-Lys-NH2): for the setting “at 50 μM”, the inhibition at 50 µM was no less than 25%.

In the case of `CCCCCCCCCCCCCCCC(=O)N[C@@H](CCCCN)C(=O)N[C@@H](C)C(=O)N[C@H](CCCCN)C(N)=O` [compound 160] (Palmitoyl-Lys-Ala-[dK]-NH2), where the note is “at 50 μM”, the inhibition at 50 µM is no less than 25%.

`CCCCCCCCCCCCCCCC(=O)N[C@@H](C)CC(=O)N[C@@H](CCCNC(=N)N)C(=O)N[C@@H](CCC(N)=O)CC(=O)N[C@@H](CCCCN)C(N)=O` [compound 72]: the inhibition at 50 µM (at 50 μM) was no less than 25%.

Take `CCCCCCCCCCCCCCCC(=O)N[C@@H](CCCCN)C(=O)N[C@@H](C)C(=O)N[C@@H](C)C(=O)N[C@@H](C(N)=O)c1ccc(OCc2ccccc2)cc1` [compound 138]: the inhibition at 50 µM (at 50 μM) was no less than 25%.

Consider `CCCCCCCCCCCCCCCC(=O)N[C@@H](CCCCN)C(=O)N1CCC[C@H]1C(=O)N[C@@H](C)C(=O)N[C@@H](CCCCN)C(=O)O` [compound 126] (Palmitoyl-KPAK-OH), for which, under “at 50 μM”, the inhibition at 50 µM was no less than 25%.

In the case of `CCCNC(=O)[C@H](CCCCN)NC(=O)[C@H](CCCCN)NC(=O)[C@H](CCCCN)NC(=O)[C@H](Cc1ccccc1)NC(=O)CC` [compound 23] (Propionyl-FKKK-NHPr), the inhibition at 50 µM (at 50 μM) was no less than 25%.

Take `CCCCCCCCCCCCCCCC(=O)N[C@@H](CCCNC(=N)N)C(=O)N[C@@H](CCC(N)=O)C(=O)N[C@@H](Cc1ccccc1)C(=O)O` [compound 45] (Palmitoyl-Arg-Gln-Phe-OH): under “at 50 μM”, the inhibition at 50 µM was no less than 25%.

Regarding `CCCCCCCCCCCCCCCC(=O)N[C@@H](CCCCN)C(=O)N1CCC[C@H]1C(=O)N[C@@H](C)C(=O)N[C@@H](CCc1ccccc1)c1nnc(C)o1` [compound 4], the inhibition at 50 µM (at 50 μM) is no less than 25%.

As to `C[C@H](NC(=O)c1ccc(-c2ccccc2)cc1)C(=O)N[C@@H](CCCNC(=N)N)C(=O)N[C@@H](CCC(N)=O)C(=O)N[C@@H](CCCCN)C(=O)NCc1ccc(C(F)(F)F)cc1` [compound 38] ({Benzoyl(4-Ph)}-ARQK-X1), the inhibition at 50 µM (at 50 μM) is no less than 25%.

As to `CCCCCCCCCCCCCCCC(=O)N[C@@H](CCc1c[nH]c(N)n1)C(=O)N[C@@H](CCC(N)=O)C(=O)N[C@@H](Cc1ccccc1)C(N)=O` [compound 55, (S)—N1—((S)-1-amino-1-oxo-3-phenylpropan-2-yl)-2-((S)-4-(2-amino-1H-imidazol-4-yl)-2-palmitamidobutanamido)pentanediamide TFA salt], the inhibition at 50 µM is no less than 25%.

Regarding `COc1cccc(CNC(=O)[C@H](CCCCN)NC(=O)[C@H](CCC(N)=O)NC(=O)[C@H](CCCNC(=N)N)NC(=O)[C@H](C)NC(=O)c2ccc(-c3cccs3)s2)c1` [compound 36] (X2-ARQK-X3), the inhibition at 50 µM (at 50 μM) is no less than 25%.

For the compound `CCCNC(=O)[C@H](CCCCN)NC(=O)[C@H](CCCCN)NC(=O)[C@H](CCCCN)NC(=O)[C@H](C)NC(=O)CC` [compound 21] (Propionyl-AKKK-NHPr), the inhibition at 50 µM (at 50 μM) is no less than 25%.

For `CCCCCCCCCCCCCCCC(=O)N[C@@H](CCCCN)C(=O)N[C@@H](C)C(=O)N[C@@H](C)C(=O)N[C@@H](CCCCN)C(=O)N(C)OC` [compound 177] (Palmitoyl-KAAK-{N(Me)OMe}), the inhibition at 50 µM (at 50 μM) was no less than 25%.

On to `CCCCCCCCCCCCCCCC(=O)N[C@@H](CCCCN)CCN1CCC[C@H]1CC(=O)N[C@@H](C)C(=O)N[C@@H](Cc1c[nH]c2ccccc12)C(N)=O` [compound 120], for which the inhibition at 50 µM (at 50 μM) was no less than 25%.

As for `CCCCCCCCCCCCCCCC(=O)N[C@@H](Cc1cccnc1)C(=O)N[C@@H](CCC(N)=O)C(=O)N[C@@H](Cc1ccccc1)C(N)=O` [compound 64] (Palmitoyl-[3Pal]-Gln-Phe-NH2), the inhibition at 50 µM (at 50 μM) was no less than 25%.

On to `CCCCCCCCCCCCCCCC(=O)N[C@@H](CCCCN)C(=O)N[C@@H](Cc1c[nH]cn1)C(N)=O` [compound 162], for which the inhibition at 50 µM (at 50 μM) was no less than 25%.

As to `CCCCCCCCCCCCCCCC(=O)N[C@@H](CCCNc1ncc[nH]1)C(=O)N[C@@H](CCC(N)=O)C(=O)N[C@@H](Cc1ccccc1)C(N)=O` [compound 65], the inhibition at 50 µM (at 50 μM) was no less than 25%.

Consider `CC(=O)N[C@@H](C)C(=O)N[C@@H](CCCNC(=N)N)C(=O)N[C@@H](CCC(N)=O)C(=O)N[C@@H](Cc1ccccc1)B(O)O` [compound 61], for which, under “at 50 μM”, the inhibition at 50 µM was no less than 25%.

In the case of `CCCCCCCCCCCCCCCC(=O)N[C@@H](CCCCN)C(=O)N1CCC[C@H]1C(=O)N[C@@H](C)C(=O)N[C@@H](CCCCN)c1nnc(C)o1` [compound 1], the inhibition at 50 µM (at 50 μM) is no less than 25%.

Consider `CCCCCCCCCCCCCCCC(=O)N[C@@H](CCCNC(=N)N)C(=O)N[C@@H](CCC(N)=O)C(=O)N[C@@H](CCCCN)C(N)=O` [compound 40] (Palmitoyl-Arg-Gln-Lys-NH2), for which the inhibition at 50 µM (at 50 μM) is no less than 25%.

Regarding `CCCCCCCCCCCCCCCC(=O)N[C@@H](CCCCN)C(=O)N[C@@H](C)C(=O)N[C@@H](CCCCN)C(=O)NS(=O)(=O)C1CC1` [compound 178], the inhibition at 50 µM (at 50 μM) was no less than 25%.

As for `CCCCCCCCCCCCCCCC(=O)N[C@@H](CCCCN)C(=O)N[C@@H](C)C(=O)N[C@H](CCCCN)C(=O)NS(=O)(=O)C1CC1` [compound 179], the inhibition at 50 µM (at 50 μM) was no less than 25%.

On to `CCCCCCCCCCCCCCCC(=O)N[C@@H](CCCCN)C(=O)N[C@@H](C)C(=O)N[C@@H](C)C(=O)N[C@H](Cc1c[nH]c2ccccc12)C(N)=O` [compound 93] (Palmitoyl-KAA[dW]-NH2), for which the inhibition at 50 µM (at 50 μM) was no less than 25%.

`CCCCCCCCCCCCCCCC(=O)N[C@@H](CCc1c[nH]cn1)C(=O)N[C@@H](CCC(N)=O)C(=O)N[C@@H](Cc1ccccc1)C(N)=O` [compound 59]: under “at 50 μM”, the inhibition at 50 µM was no less than 25%.

Consider `CCCCCCCCCCCCCCCC(=O)N[C@@H](CCCc1c[nH]c(N)n1)C(=O)N[C@@H](CCC(N)=O)C(=O)N[C@@H](Cc1ccccc1)C(N)=O` [compound 56], for which the inhibition at 50 µM (at 50 μM) is no less than 25%.

The values are drawn from patent publication US20250059231A1, “Protease inhibitors” (priority 2021, published 2025).
